Measured values from ChEMBL document CHEMBL1132095, “6-arylamino-5,8-quinolinediones and 7-arylamino-5,8-isoquinolinediones as inhibitors of endothelium-dependent vasorelaxation” (Bioorg Med Chem Lett, 1999).

What was measured:
Rattus norvegicus [1] = organism: Rattus norvegicus; experiment: Percent of maximal acetylcholine (ACh)-induced vasorelaxation of the rat aorta; format: functional
Rattus norvegicus [2] = organism: Rattus norvegicus; experiment: Inhibitory activity on acetylcholine-induced vasorelaxation of phenylephrine-precontracted rat aorta with intact endothelium; format: functional, organism-based

EC50 (Rattus norvegicus [2]) [nM]	Compound	Emax (Rattus norvegicus [1]) [%]
288	O=C1C(Nc2ccc(F)cc2F)=CC(=O)c2ncccc21	94
562	O=C1C=C(Nc2cccc(F)c2)C(=O)c2cnccc21	89
607	O=C1C(Nc2ccc(C(F)(F)F)cc2)=CC(=O)c2ncccc21	91
937	O=C1C(Nc2ccc(F)c(F)c2F)=CC(=O)c2ncccc21	72
335	O=C1C(Nc2ccccc2)=CC(=O)c2ncccc21	77
805	O=C1C(Nc2cccc(F)c2)=CC(=O)c2ncccc21	85
214	O=C1C(Nc2ccc(I)cc2)=CC(=O)c2ncccc21	89
1230	O=C1C=C(Nc2ccc(F)cc2)C(=O)c2cnccc21	72
541	O=C1C(Nc2ccc(F)cc2)=CC(=O)c2ncccc21	79
302	O=C1C(Nc2ccc(Br)cc2)=CC(=O)c2ncccc21	88
178	O=C1C(Nc2ccc(Cl)cc2)=CC(=O)c2ncccc21	86
251	O=C1C(Nc2ccc(F)c(F)c2)=CC(=O)c2ncccc21	92
603	O=C1C(Nc2ccc(OC(F)(F)F)cc2)=CC(=O)c2ncccc21	88
362	O=C1C=C(Nc2ccc(F)cc2)C(=O)c2ccccc21	98
449	O=C1C(Nc2cc(F)cc(F)c2)=CC(=O)c2ncccc21	91

More lines, now with the values behind:

Compound	EC50 (Rattus norvegicus [2]) [nM]	Emax (Rattus norvegicus [1]) [%]
O=C1C=C(Nc2ccc(F)cc2F)C(=O)c2cnccc21	430	96
O=C1C=CC(=O)c2ncccc21	519	80
O=C1C=C(Nc2ccc(F)c(F)c2F)C(=O)c2cnccc21	1130	87
O=C1C=C(Nc2ccc(F)c(F)c2)C(=O)c2cnccc21	640	81
O=C1C=C(Nc2ccc(Cl)cc2)C(=O)c2ccccc21	220	98
O=C1C=C(Nc2ccc(Cl)cc2)C(=O)c2cnccc21	190	96
O=C1C=C(Nc2ccc(F)c(F)c2F)C(=O)c2ccccc21	330	97
O=C1C=C(Nc2ccccc2)C(=O)c2cnccc21	439	93
O=C1C=C(Nc2ccccc2)C(=O)c2ccccc21	239	98
O=C1C=C(Nc2cc(F)cc(F)c2)C(=O)c2cnccc21	290	94
O=C1C=CC(=O)c2ccccc21 [NAPHTHOQUINONE]	127	98
N=C(NCCC[C@H](N)C(=O)O)N[N+](=O)[O-] [NITROARGININE]	1100	69
